The values that follow come from patent US20100130737A1, “Regulating Agent of GPR34 Receptor Function” (TAKEDA PHARMACEUTICAL COMPANY LIMITED, priority 2005, published 2010).

Where a name gives a salt, the structure may show the parent alone.

With `O=C(Cc1ccc(OC2CCc3ccccc32)cc1)NC1(C(=O)O)Cc2ccc(-c3ccc(Cl)cc3)cc2C1` (stereo not shown) [Example B154, 5-(4-Chlorophenyl)-2-({[4-(2,3-dihydro-1H-inden-1-yloxy)phenyl]acetyl)amino)indan-2-carboxylic acid], the melting point (as a rule, the temperature of the solid-liquid transition) lay within 194 to 195 °C.

As to `Cc1c(C(=O)NC2(C(=O)O)Cc3ccc(-c4ccc(Cl)cc4)cc3C2)oc2cc(-c3ccc(Cl)cc3)ccc12` (stereo not shown) [Example B129, 5-(4-Chlorophenyl)-2-({[6-(4-chlorophenyl)-3-methyl-1-benzofuran-2-yl]carbonyl}amino)indan-2-carboxylic acid], the melting point is 257 °C.

With `O=C(Cc1ccccc1Cl)NC1(C(=O)O)Cc2ccc(-c3ccc(Cl)cc3)cc2C1` (stereo not shown) [Example B136, 5-(4-Chlorophenyl)-2-{[(2-chlorophenyl)acetyl]amino}indan-2-carboxylic acid], the melting point was found to be 222 °C.

Turning to `O=C(Cc1ccc(OCc2ccoc2)cc1)NC1(C(=O)O)Cc2ccc(-c3ccc(Cl)cc3)cc2C1` (stereo not shown) [Example B146, 5-(4-Chlorophenyl)-2-({[4-(3-furylmethoxy)phenyl]acetyl}amino)indan-2-carboxylic acid], the melting point was in the range of 200 to 202 °C.

The compound `O=C(NC(Cc1ccc(OCc2ccccc2F)cc1)C(=O)O)c1cn2cc(-c3ccc(Cl)cc3)ccc2n1` (stereo not shown) [Example E6] had a melting point of 273 °C.

Turning to `O=C(CCCSc1ccc2ccccc2c1)NC1(C(=O)O)Cc2ccc(-c3ccc(Cl)cc3)cc2C1` (stereo not shown) [Example B170, 5-(4-Chlorophenyl)-2-{[4-(2-naphthylthio)butanoyl]amino}indan-2-carboxylic acid], the melting point lay in the range of 210 to 212 °C.

Compound `Cc1c(C(=O)N[C@@H](Cc2ccc(OCc3ccoc3)cc2)C(=O)O)oc2cc(-c3ccc(Cl)cc3)ccc12` [Example C119, N-{[6-(4-Chlorophenyl)-3-methyl-1-benzofuran-2-yl]carbonyl}-O-(3-furylmethyl)-L-tyrosine] registered a melting point of 108 to 110 °C.

`O=C(Cc1ccc(NCc2ccc(F)cc2)cc1)NC1(C(=O)O)Cc2ccc(-c3ccc(Cl)cc3)cc2C1` (stereo not shown) [Example B162, 5-(4-Chlorophenyl)-2-[({4-[(4-fluorobenzyl)amino]phenyl}acetyl)amino]indan-2-carboxylic acid] gave a melting point of 188 to 190 °C.

Compound `O=C(Cc1ccc(OCc2cccs2)cc1)NC1(C(=O)O)Cc2ccc(-c3ccc(Cl)cc3)cc2C1` (stereo not shown) [Example B151, 5-(4-Chlorophenyl)-2-({[4-(2-thienylmethoxy)phenyl]acetyl}amino)indan-2-carboxylic acid] gave a melting point of 201 °C.

The compound `O=C(NC(Cc1ccc(OCc2ccccc2)cc1)c1nnn[nH]1)c1cn2nc(-c3ccc(Cl)cc3)ccc2n1` (stereo not shown) [Example E15, N-[2-[4-(Benzyloxy)phenyl]-1-(1H-tetrazol-5-yl)ethyl]-6-(4-chlorophenyl)imidazo[1,2-b]pyridazine-2-carboxamide] showed a melting point of 186 °C.

`O=C(CCc1ccc(F)cc1)NC1(C(=O)O)Cc2ccc(-c3ccc(Cl)cc3)cc2C1` (stereo not shown) [Example B132, 5-(4-Chlorophenyl)-2-{[3-(4-fluorophenyl)propanoyl]amino}indan-2-carboxylic acid] returned a melting point of 220 °C.

With `COc1cccc(COc2ccc(C[C@H](NC(=O)c3cc4cc(-c5ccc(Cl)cc5)ccc4s3)C(=O)O)cc2)c1` [Example C128, N-{[5-(4-Chlorophenyl)-1-benzothiophene-2-yl]carbonyl}-O-(3-methoxybenzyl)tyrosine], the melting point was in the range of 175 to 177 °C.

In the case of `O=C(N[C@@H](Cc1ccc(OCc2ccoc2)cc1)C(=O)O)c1cc2cc(-c3ccc(Cl)cc3)ccc2s1` [Example C125, N-{[5-(4-Chlorophenyl)-1-benzothiophene-2-yl]carbonyl}-O-(3-furylmethyl) tyrosine], the melting point lay in the range of 172 to 173 °C.

The compound `O=C(N[C@@H](Cc1ccc(OCc2ccoc2)cc1)C(=O)O)c1cn2cc(-c3ccc(Cl)cc3)ccc2n1` [Example E31, N-{[6-(4-Chlorophenyl)imidazo[1,2-a]pyridin-2-yl]carbonyl}-O-(3-furylmethyl)tyrosine] registered a melting point of 262 °C.

On to `COc1cccc(COc2ccc(C[C@H](NC(=O)c3cc4ccc(-c5ccc(Cl)cc5)cc4o3)C(=O)O)cc2)c1` [Example C155, N-{[6-(4-Chlorophenyl)-1-benzofuran-2-yl]carbonyl}-O-(3-methoxybenzyl)tyrosine], for which the melting point lay within 150 to 151 °C.

For the compound `O=C(Cc1cccc(Cl)c1)NC1(C(=O)O)Cc2ccc(-c3ccc(Cl)cc3)cc2C1` (stereo not shown) [Example B138, 5-(4-Chlorophenyl)-2-{[(3-chlorophenyl)acetyl]amino}indan-2-carboxylic acid], the melting point is 234 °C.

In the case of `O=C(NC1(C(=O)O)Cc2ccc(-c3ccc(Cl)cc3)cc2C1)c1ccc2ncsc2c1` (stereo not shown) [Example B137, 2-[(1,3-Benzothiazol-6-ylcarbonyl)amino]-5-(4-chlorophenyl)indan-2-carboxylic acid], the melting point was 210 °C.

As for `O=C(O)C1(NS(=O)(=O)Cc2ccc(F)cc2)Cc2ccc(-c3ccc(Cl)cc3)cc2C1` (stereo not shown) [Example B130, 5-(4-Chlorophenyl)-2-{[(4-fluorobenzyl)sulfonyl]amino}indan-2-carboxylic acid], the melting point is 210 to 213 °C.

Consider `Cc1nc2ccccc2n1CC(=O)NC1(C(=O)O)Cc2ccc(-c3ccc(Cl)cc3)cc2C1` (stereo not shown) (as salt: hydrochloride) [Example B159, 5-(4-Chlorophenyl)-2-{[(2-methyl-1H-benzimidazol-1-yl)acetyl]amino}indan-2-carboxylic acid hydrochloride], for which the melting point lay in the range of 284 to 285 °C.

`O=C(/C=C/c1ccc(-c2ccc(Cl)cc2)o1)N[C@@H](Cc1ccc(OCc2ccccc2)cc1)C(=O)O` [Example D4, O-Benzyl-N-{(2E)-3-[5-(4-chlorophenyl)-2-furyl]propa-2-enoyl}tyrosine] displayed a melting point of 224 to 225 °C.

Compound `Cc1c(C(=O)NC2(C(=O)O)Cc3cccc(Br)c3C2)oc2cc(-c3ccc(Cl)cc3)ccc12` (stereo not shown) [Example C113, 4-Bromo-2-({[6-(4-chlorophenyl)-3-methyl-1-benzofuran-2-yl]carbonyl}amino)indan-2-carboxylic acid] gave a melting point of 230 °C.

The compound `O=C(Cc1ccc(OCc2c(Cl)cccc2Cl)cc1)NC1(C(=O)O)Cc2ccc(-c3ccc(Cl)cc3)cc2C1` (stereo not shown) [Example B153] showed a melting point of 204 to 205 °C.

`O=C(N[C@@H](Cc1ccc(OCc2ccccc2)cc1)C(=O)O)c1cn2cc(-c3ccncc3)ccc2n1` [Example E21, O-Benzyl-N-[(6-(pyridine-4-yl)imidazo[1,2-a]pyridin-2-yl)carbonyl]tyrosine] returned a melting point of 268 °C.

As for `Cc1cc2nc(C(=O)N[C@@H](Cc3ccc(OCc4ccccc4)cc3)C(=O)O)cn2cc1-c1ccc(Cl)cc1` [Example E35, O-Benzyl-N-{[6-(4-chlorophenyl)-7-methylimidazo[1,2-a]pyridin-2-yl]carbonyl}tyrosine], the melting point is 248 to 249 °C.

Compound `O=C(Cc1ccc(OCc2ccncc2)cc1)NC1(C(=O)O)Cc2ccc(-c3ccc(Cl)cc3)cc2C1` (stereo not shown) [Example B163, 5-(4-Chlorophenyl)-2-({[4-(pyridin-4-ylmethoxy)phenyl]acetyl}amino)indan-2-carboxylic acid] displayed a melting point of 128 °C.
